Data reported in patent US20250129095A1, “ANNULATED 2-AMINO-3-CYANO THIOPHENES AND DERIVATIVES FOR THE TREATMENT OF CANCER” (Boehringer Ingelheim Int'l GmbH Corp., priority 2021, published 2025).
Converted amounts (≈) assume the structure as drawn. Where two headings read alike, the source gives them in different places.

Experiments:
[1] = Metabolic (microsomal) stability assay, human liver microsomes (HLM); assay type: in vitro ADME; settings: 1 μM, predicted clearance as percent of liver blood flow
Procedure: The metabolic degradation of the test compound is assayed at 37° C. with pooled liver microsomes (mouse (MLM), rat (RLM) or human (HLM)). The final incubation volume of 48 μL per time point contains TRIS buffer (pH 7.5; 0.1 M), magnesium chloride (6.5 mM), microsomal protein (0.5 mg/mL for mouse/rat, 1 mg/mL for human specimens) and the test compound at a final concentration of 1 μM. Following a short preincubation period at 37° C., the reactions are initiated by addition of 12 μL beta-nicotinamide adenine dinucleotide phosphate, reduced form (NADPH, 10 mM) and terminated by transferring an aliquot into solvent after different time points (0, 5, 15, 30, 60 min). Additionally, the NADPH-independent degradation is monitored in incubations without NADPH, terminated at the last time point by addition of acetonitrile. The quenched incubations are pelleted by centrifugation (4,000 rpm, 15 min). An aliquot of the supernatant is assayed by LC-MS/MS to quantify the concentration of parent compound in the individual samples.
In vitro intrinsic clearance (CLint, in vitro) is calculated from the time course of the disappearance of the test drug during the microsomal incubation. Each plot is fitted to the first-order elimination rate constant as C(t)=C0*exp(−ke*t), where C(t) and C0 are the concentration of unchanged test drug at incubation time t and that at preincubation and ke is the disappearance rate constant of the unchanged drug. Subsequently, CLint, in vitro (μL min^−1·amount protein) values are converted to predicted CLint, in vitro (mL min^−1·kg^−1) from incubation parameters according to the equation CLint, in vitro=CLint, in vitro×(incubation volume (ml)/amount protein (mg))×(amount protein (mg)/g liver tissue)×(liver weight/body wt.). For better across species comparison the predicted clearance is expressed as percent of the liver blood flow [% QH](mL min^−1·kg^−1) in the individual species. In general, high stability (corresponding to low % QH) of the compounds across species is desired.

KRAS G12D Ba/F3 = KRAS G12D Ba/F3 (Homo sapiens, UniProt P01116, G12D, cells depend on it); assay: Ba/F3 proliferation assay, KRAS G12D; assay type: cell-based; settings: 72 h, AlamarBlue, read-out: KRAS G12D Ba/F3 IC50
Sequence of KRAS G12D Ba/F3 (P01116 whole entry G12D, canonical isoform): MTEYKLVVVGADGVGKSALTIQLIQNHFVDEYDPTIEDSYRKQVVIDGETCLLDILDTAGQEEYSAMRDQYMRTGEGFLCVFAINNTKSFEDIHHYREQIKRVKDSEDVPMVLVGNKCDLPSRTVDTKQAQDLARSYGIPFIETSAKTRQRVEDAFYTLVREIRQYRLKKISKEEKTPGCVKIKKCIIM
Procedure: (§1) Plasmids containing KRASG12 mutants(i.e. G12D, G12C, G12V) are obtained from GeneScript. To generate KRASG12-dependent Ba/F3 models, Ba/F3 cells are transduced with retroviruses containing vectors that harbor KRASG12 isoforms. Platinum-E cells (Cell Biolabs) are used for retrovirus packaging. Retrovirus is added to Ba/F3 cells. To ensure infection, 4 μg/mL polybrene is added and cells are spinfected. […] Cells with an infection efficiency of 10% to 20% are further cultivated and puromycin selection with 1 μg/mL is initiated. As a control, parental Ba/F3 cells are used to show selection status. Selection is considered successful when parental Ba/F3 cells cultures died. To evaluate the transforming potential of KRASG12 mutations, the growth medium is no longer supplemented with IL-3. Ba/F3 cells harboring the empty vector are used as a control. Approximately ten days before conducting the experiments, puromycin is left out.
(§2) Compounds are added using an Access Labcyte Workstation with a Labcyte Echo 550 or 555 accoustic dispenser. All treatments are performed in technical duplicates. […] AlamarBlue™ (ThermoFisher), a viability stain, is added and fluorescence measured in the PerkinElmer Envision HTS Multilabel Reader. The raw data are imported into and analyzed with the Boehringer Ingelheim proprietary software MegaLab (curve fitting based on the program PRISM, GraphPad Inc.).

AsPC-1 cells = assay: AsPC-1 CTG proliferation assay (120 h) (pancreatic cancer, G12D); assay type: cell-based; settings: Homo sapiens, ASPC1
Procedure: The CTG assay is designed to measure quantitatively the proliferation of AsPC-1 cells (ATCC CRL-5985), using the CellTiter Glow Assay Kit (Promega G7571). Cells are grown in RPMI medium (ATCC) supplemented with Fetal Calf Serum (Life Technologies, Gibco BRL, Cat. No. 10270-106). On “day 0” 2000 AsPC-1 cells are seeded in 60 μL RPMI ATCC+10% FCS+ Penstrep in a 384-well plate, flat and clear bottom (Greiner, PNr. 781091). Cells are then incubated in the plates at 37° C. in a CO2 incubator overnight. On day 1, compounds (10 mM stock in DMSO) are added with the ECHO acoustic liquid handler system (Beckman Coulter), including DMSO controls. Plates are incubated for 120 h, and cell viability is measured using CellTiter-Glo luminescent cell viability reagent (Promega product code G7570). Viability (stated as percent of control) is defined as relative luminescence units RLU of each well divided by the RLU of cells in DMSO controls.

KRAS G12V Ba/F3 = KRAS G12V Ba/F3 (Homo sapiens, UniProt P01116, G12V, cells depend on it); assay: Ba/F3 proliferation assay, KRAS G12V; assay type: cell-based; settings: 72 h, AlamarBlue, read-out: KRAS G12V Ba/F3 IC50
Sequence of KRAS G12V Ba/F3 (P01116 whole entry G12V): as the sequence (P01116 whole entry G12D, canonical isoform) above, with D12V counted along it
Procedure: as §1, §2

[2] = Solubility measurement (DMSO solution precipitation method); assay type: physicochemical; settings: aqueous buffer, kinetic from dmso stock
Procedure: The DMSO solution is diluted with an aqueous medium (McIlvaine buffer with pH=4.5 or 6.8) to a final concentration of 250 μM. After 24 h of shaking at ambient temperature a potentially formed precipitate is removed by filtration. The concentration of the test compound in the filtrate is determined by LC-UV methods by calibrating the signal to the signal of a reference solution with complete dissolution of the test compound in acetonitrile/water (1:1) with known concentration.

SK-CO-1 cells = assay: SK-CO-1 CTG proliferation assay (120 h) (CRC, G12V); assay type: cell-based; settings: Homo sapiens
Procedure: SK-CO-1 cells (ATCC HTB-39) are dispensed into 384-well plates, flat and clear bottom (Greiner, PNr. 781091) at a density of 500 cells per well in 60 μL EMEM (Sigma M5650)+10% Fetal Calf Serum (HyClone, PNr.: SH30084.03) and incubated at 37° C. in a CO2 incubator overnight. The next day, compounds (10 mM stock in DMSO) are added with the ECHO acoustic liquid handler system (Beckman Coulter), including DMSO controls. Plates are incubated for 120 h, and cell viability is measured using CellTiter-Glo luminescent cell viability reagent (Promega product code G7570). Viability (stated as percent of control) is defined as relative luminescence units RLU of each well divided by the RLU of cells in DMSO controls.

[3] = McIlvaine buffer pH 4.5, 24 h, read-out: Solubility [μg/ml] pH 4.5
[4] = McIlvaine buffer pH 6.8, 24 h, read-out: Solubility [μg/ml] pH 6.8

Row | SMILES | HLM QH [%] [1] | GI50 (KRAS G12D Ba/F3) | IC50 (AsPC-1 cells) | GI50 (KRAS G12V Ba/F3) | solubility at 24 h [2, 3] | solubility at 24 h [2, 4] | IC50 (SK-CO-1 cells)
1 | C[C@H](Oc1cc(OCC2(N(C)C)COC2)nc(-c2onc3c2CCC[C@@]32CCCc3sc(N)c(C#N)c32)n1)[C@@H]1CCCN1C [Example I-8] | 30% | 11 nM | 272 nM | 85 nM | > 143 µg/mL | > 125 µg/mL | 401 nM
2 | C[C@H](Oc1cc(Oc2cncnc2)nc(-c2noc3c2CCC[C@@]32CCCc3sc(N)c(C#N)c32)n1)[C@@H]1CCCN1C [II-1] | <24% | 6 nM | 699 nM | 4 nM | > 137 µg/mL | > 124 µg/mL | 18 nM
3 | C[C@H](Oc1cc(Oc2nccs2)nc(-c2noc3c2CCC[C@@]32CCCc3sc(N)c(C#N)c32)n1)[C@@H]1CCCN1C [II-2] | 46% | 20 nM | 1840 nM | 4 nM | > 109 µg/mL | < 1 µg/mL | 26 nM
4 | C[C@H](Oc1cc(Oc2ccon2)nc(-c2noc3c2CCC[C@@]32CCCc3sc(N)c(C#N)c32)n1)[C@@H]1CCCN1C [II-3] | 70% | 27 nM | 1980 nM | 9 nM | > 138 µg/mL | 42 µg/mL (≈ 73.2 µM) | 84 nM
5 | C[C@H](Oc1cc(O[C@H]2CCOC2)nc(-c2noc3c2CCC[C@@]32CCCc3sc(N)c(C#N)c32)n1)[C@@H]1CCCN1C [II-4] | 59% | 31 nM | 2750 nM | 6 nM | 80 µg/mL (≈ 139 µM) | < 1 µg/mL | 28 nM
6 | COCCOc1cc(O[C@@H](C)[C@@H]2CCCN2C)nc(-c2noc3c2CCC[C@@]32CCCc3sc(N)c(C#N)c32)n1 [II-5] | 31% | 38 nM | 2550 nM | 7 nM | > 140 µg/mL | 108 µg/mL (≈ 191 µM) | 23 nM
7 | C[C@H](Oc1cc(OCCO)nc(-c2noc3c2CCC[C@@]32CCCc3sc(N)c(C#N)c32)n1)[C@@H]1CCCN1C [II-6] | 40% | 16 nM | 1760 nM | 7 nM | > 121 µg/mL | > 119 µg/mL | 88 nM
8 | C[C@H](Oc1cc(Oc2cnccn2)nc(-c2noc3c2CCC[C@@]32CCCc3sc(N)c(C#N)c32)n1)[C@@H]1CCCN1C [II-7] | 72% | 10 nM | 3000 nM | 3 nM | > 118 µg/mL | 90 µg/mL (≈ 154 µM) | 21 nM
9 | C[C@H](Oc1cc(N(C)C)nc(-c2noc3c2CCC[C@@]32CCCc3sc(N)c(C#N)c32)n1)[C@@H]1CCCN1C [II-10] | <24% | 81 nM | 1940 nM | 43 nM | > 107 µg/mL | 95 µg/mL (≈ 178 µM) | 1200 nM
10 | C[C@H](Oc1cc(Nc2nccs2)nc(-c2noc3c2CCC[C@@]32CCCc3sc(N)c(C#N)c32)n1)[C@@H]1CCCN1C [II-12] | <24% | 65 nM | 2920 nM | 11 nM | 2 µg/mL (≈ 3.4 µM) | < 1 µg/mL | 308 nM
11 | C[C@H](Oc1cc(Nc2ncco2)nc(-c2noc3c2CCC[C@@]32CCCc3sc(N)c(C#N)c32)n1)[C@@H]1CCCN1C [II-13] | <24% | 37 nM | 966 nM | 10 nM | > 157 µg/mL | 44 µg/mL (≈ 76.8 µM) | 69 nM
12 | C[C@H](Oc1cc(Nc2cnccn2)nc(-c2noc3c2CCC[C@@]32CCCc3sc(N)c(C#N)c32)n1)[C@@H]1CCCN1C [II-14] | <24% | 59 nM | 3180 nM | 7 nM | 67 µg/mL (≈ 115 µM) | 11 µg/mL (≈ 18.8 µM) | 115 nM
13 | C[C@H](Oc1cc(Nc2ncccn2)nc(-c2noc3c2CCC[C@@]32CCCc3sc(N)c(C#N)c32)n1)[C@@H]1CCCN1C [II-17] | <24% | 33 nM | 2720 nM | 10 nM | 67 µg/mL (≈ 115 µM) | < 1 µg/mL | 60 nM
